These results are taken from patent US5587463A, “Texaphyrin macrocycles and metal complexes thereof” (Board of Regents, The University of Texas System, priority 1994, dated 1996).

For data set [1] the following is noted: aqueous solution; 0.01 to 1 mM; cited from earlier work.
A short description of data set [2]: Stability to demetallation (sulfide, thiosulfate). The data set is classed as physicochemical. From the text: The above K1 and K2 (or K1 K2) values are predicated on the assumption that the cadmium complexes under discussion are stable with regards to demetallation and that the equilibria of equations 1 and 2 (or 3) pertain under the conditions of base binding. The first of these concerns is readily apparent: If demetallation occurs, then obviously one is not studying base binding! […] The second concern is particularly important within the context of quantitative work: If, for instance, the starting complex 3.cndot.NO3 is not rigorously five coordinate, then K1 (and perhaps K2 as well) would represent an axial ligand displacement reaction rather than a pure addition process as implied above. Control experiments indicate that the assumption of initial five coordination is reasonable: Independent titrations of 3A .cndot.NO3 with NH4 NO3 and H2 O indicate that only modest and monotonic changes in the chemical shift of the "meso" signals take place over the course of adding ≥50 equivalents of these potentially adventitious ligands.^40 This means that either "complete" binding occurs at 1:1 stoichiometry (essentially ruled out in the case of H2 O on the basis of analytical data), or that these species are poorly coordinating in CHCl3 so that five coordination pertains about cadmium; the latter interpretation appearing more likely.
(§1) Attempts to demetallate complex 3A .cndot.NO3 were made. In an effort to obtain the free sp^2 bridged ligand 2A, the above complex in chloroform was stirred for several hours in the presence of sodium sulfide and independently with sodium thiosulfate. […] In the case of sodium sulfide, this critical conclusion was further supported by FAB MS: Other than the starting cationic complex 3A, no evidence was obtained for any moderate to high molecular weight volatile products in the mass spectrum. […] The rate of this process, however, is strongly pH dependent, the half-life being, for instance, on the order of several hours in the presence of ca. 0.1N HCl.

The subject of data set [3] is Herpes Simplex Virus Type 1 (HSV-1). In words: HSV-1 photoinactivation, viral plaque assay in Vero cells. In kind it is cell-based. The following applies: for % Survival Viral Infectivity: light at max absorption, 10 J/cm^2. From the text: The photosensitized inactivation of Herpes Simple Virus, Type 1 (HSV-1) was investigated in culture medium using various macrocycles of the present invention.
The macrocycle photosensitizing studies employed enveloped HSV-1 as the model for screening based on its ease of propagation and assessment of infectivity in cell culture. The screening procedure for photoinactivation of HSV-1 was similar to the methods previously described.^3 Essentially, selected macrocycles at different concentrations were added to a cell-free suspension of 10^6 PFU/ml of HSV-1. The viral suspensions were irradiated at the optimal absorption wavelength of the selected dye at different light-energy densities. Controls consisted of (1) nonirradiated virus, (2) virus irradiated in the absence of macrocycle, and (3) virus treated with selected concentrations of macrocycle and maintained in the dark. All samples were then assessed for viral infectivity by determining the number of PFU/ml in Vero cells.
Viral suspensions were serially diluted and subsequently absorbed onto Vero cell monolayers for 11/2 hours at 37^~ C. An overlay medium was added and the cells incubated at 37^~ C. for 3-4 days. The overlay medium was then removed, the monolayers fixed with methanol and tinctured with Giemsa, and individual plaques counted under a dissecting microscope. Uninfected cell cultures also were exposed to the macrocycle complexes to rule out direct cytotoxic effects.

Data set [4] is described as follows: Axial base binding of benzimidazole, 1H NMR spectral titration. The following applies: CDCl3; Scatchard plot; estimated error ≤15%; read-out: K1 (benzimidazole) (converted). From the text: For a rigorously five coordinate starting cadmium complex, such as that represented schematically by structure 3A, where neither the counter anion nor adventitious ligands serves to occupy an apical coordination site, base binding can be considered to occur in accord with equations (1) and (2) shown below. Under conditions where K1 […]K2, these processes can be considered to occur sequentially, giving first a monoligated, presumably pentagonal pyramidal six coordinate species (such as 4bA), followed by a coordinatively saturated bisligated pentagonal bipyramidal product akin to 5aA. Where, however, K2 >>K1this stepwise conceptual approach is invalid. Under these conditions, it becomes easier to analyze the base binding in terms of direct formation of the bisligated material as shown in equation (3).
L+B LB K1 =[LB]/[L][B] (1)
LB+B LB2 K2 =[LB2 ]/[LB][B] (2)
L+2B LB2 K1 K2 =[LB2 ]/[L][B]^2 (3)
The ^1 H NMR titration of 3A .cndot.NO3 with BzIm or pyr-D5 was done. Rigorously purified complex 3A .cndot.NO3 was dried at 80° C. under reduced pressure (1 mmHg) for 1 day. Starting samples for titration were then prepared by dissolving this five coordinate complex (3.32 mg, 0.005 mmol) in 0.7 to 0.75 ml of CDCl3 and transferring quantitatively to an NMR tube. To such samples were then added increasing aliquots of either BzIm or pyr-D5 (as solutions of known concentration in CDCl3) and recording the chemical shift of the "meso" protons at 27^Q C. Control experiments were also carried out by adding known quantities of CF3 CO2 H, D2 O, and NH4 NO3 to similar stock solutions of 3.cndot.NO3.
Determination of Binding Constants. […] The chemical shift data obtained for the "meso" signals as a function of added BzIm were thus analyzed as such at both very low and very high conversion: Standard Scatchard (single reciprocal) plots^38 were constructed by plotting (δ-δo)/[BzIm] vs (δ-δo) according to equation 4 (which corresponds to eq. 5.13 of ref. 38), obtaining K as the absolute value of the slope and the term (δ.infin. -δo)K as the intercept.
(δ-δo)/[BzIm]=-K(δ-δo)+(δ.infi
Here δ is the observed chemical shift, δo is the initial chemical shift of the pure five or six coordinate starting complex (3A .cndot.NO3 or 4bA --NO3), δ.infin. the chemical shift calculated for the final mono- or bisligated complexes 4bA .cndot.NO3 or 5aA .cndot.NO3, K the equilibrium constant in question, and [BzIm] the concentration of free, uncomplexed benzimidazole. […] This was done in a straightforward manner according to the expressions given in equations 5 and 6, where [lig]o represents the concentration of the starting five coordinate ligand 3A .cndot.NO3.
(δ-δo)/δ.infin. -δo) at low
[BzIm].congruent.[BzIm]o -[lig]o at high [BzIm]o (6)
Using these corrected values for [BzIm], straight line Scatchard plots were obtained with R[…]0.99 and 0.98 respectively for the low and high [BzIm]o regimes giving values of K1 and K2 of 1.80×10^4 M^-1 and 12.9 M^-1 respectively.

Data set [5] is described as follows: Hydrolysis in aqueous acid. The following applies: aqueous acid. In kind it is physicochemical.
Source text: as §1

Data set [6] deals with peripheral mononucleated vascular cells (PMC). In words: Mitogenic assay ([3H]-Thy uptake after PHA stimulation) of peripheral mononucleated vascular cells in whole human plasma. The note with it: 0.15 μM, 20 joules/cm^2 of 770 nm light, aerobic. The data set is classed as cell-based. The method, then: Cell kill was determined by [3H]-Thy uptake after phytohemagglutin (PHA) stimulation.
Cell kill was determined by [^3 H]-Thy uptake after PHA stimulation.
The inactivation of PMC's in the absence and presence of light after exposure to concentrations of complex 3A in whole human plasma ranging from 0.015 to 38 μM is shown in FIG. 29 and FIG. 30. Inactivation was judged by mitogenic assay. Toxicity onset with 3A (see FIG. 4B) and 1c (see FIG. 19) in the absence of light was between 0.15 and 1.5 μM (FIG. 29). […] Moderate increase in either photosensitizer concentration or light dosage is expected to result in essentially complete cellular inactivation.

Data set [7] is described as follows: Optical and photophysical properties of metallotexaphyrins (laser flash photolysis, fluorescence, singlet oxygen luminescence). In kind it is physicochemical. The following applies: preliminary, photoexcitation at 350 nm. An excerpt:
Finally, several complexes containing paramagnetic metal ions (e.g. Mn^II, Sm^III, and Eu^III, structures 5c -7c) were investigated.
Comparison of the initial intensity with that obtained using tetrakis (4-hydroxyphenyl)porphyrin (THPP) as photosensitizer^3b under identical conditions allowed calculation of the quantum yields for production of singlet oxygen (^.phi. 1.cndot.2).

For data set [8] the following is noted: cited from earlier work.
The conditions of data set [9]: 37° C. in water, 20 MHz; cited from earlier work.
In a further data set the test system is tumor. The following applies: in vivo; cited from earlier work.

As to `[Gd+3]` [Gd(III)], the “toxicity for direct use in MRI imaging” value in [1] is given as “too toxic to be used directly”.

In the case of `CCC1=C(C)c2cnc3ccccc3ncc3nc(cc4[n-]c(cc1n2)c(CC)c4CC)C(CC)=C3C.[Cd+2]` [complex 3A], the demetallation by sulfide entry in [2] (aqueous Na2 S / excess sulfide anion) is “no demetallation takes place”. Moreover, the “stability relative to cadmium porphyrins” value in [2] (neutral conditions / base binding controls) is “more stable than cadmium porphyrins”. For the same molecule, the “% Survival Viral Infectivity” value in data set [3] (0.25 μM) came out at 100%; in data set [3] (2.5 μM) it was 20%; in data set [3] (10 μM), 8%; in data set [3] (20 μM) it was 12%. The molecule also gave a viral inactivation in [3] (20 μM, viral plaque assay) of no less than 90%. The Kd in [4] is 55.6 µM. In addition, the “hydrolysis in aqueous acid” value in [5] is “leads to hydrolysis of the macrocyle”. Besides, the “inhibition of cellular division” value in [6] is recorded as “significant inhibition of the cellular division of PMC's”. In addition, the triplet quantum yield result in data set [7] is listed as “roughly 80%”. In addition, the “triplet quenching in the presence of air” value in data set [7] is on record as “quenched completely by formation of singlet oxygen”. The molecule also had a triplet lifetime in [7] (absence of oxygen) of 54 μs.

On to `CNC[C@H](O)[C@@H](O)[C@H](O)[C@H](O)CO.CNC[C@H](O)[C@@H](O)[C@H](O)[C@H](O)CO.O=C([O-])CN(CCN(CC(=O)[O-])CC(=O)O)CCN(CC(=O)[O-])CC(=O)O.[Gd+3]` [[Gd(DTpA)(H2 O)]^2-, bis(N-methylglucamine) salt of Gd(III) diethylenetriaminepentaacetate], for which, in data set [8] (after administration), the excretion entry is given as “excreted intact through the kidneys within several days of administration”. Further, in data set [8] (in vivo), the localization result is recorded as “localizes selectively in extracellular regions”. The relaxivity in data set [9] is recorded as 3.7 mM-^1 s-^1.

As to `O=S(=O)([O-])c1ccc(-c2c3nc(c(-c4ccc(S(=O)(=O)[O-])cc4)c4ccc([n-]4)c(-c4ccc(S(=O)(=O)[O-])cc4)c4ccc([n-]4)c(-c4ccc(S(=O)(=O)[O-])cc4)c4nc2C=C4)C=C3)cc1.[Mn+3]` [[Mn(III)TPPS]^3 -], the tumor localizing properties entry in the data set on tumor is listed as “good tumor localizing properties”.
